Structures can show the parent of a compound that is named as a salt.
Key:
dog femoral arteries = test: In vitro study on dog femoral arteries (contraction); assay type: cell-based, dog (mongrel); details: Canis lupus familiaris, dog femoral artery rings; for EC50: 37C, cumulative doses; for Emax: relative to maximum effect of 100 mM KCl, read-out: ARTERY Max
Experimental: (§1) In vitro study on dog femorai arteries and saphenous veins
(§2) The technique used is based on that described by FOWLER et al., (J. Pharmacol. Exp. Ther., 229, 712-718, 1984). Male or female mongrel dogs weighing approximately 15-25 kg were used as a source of organs. The animals are anesthetized with pentobarbital (30 mg/kg intravenously). The legs are incised and the vessels removed. They are placed in Krebs-Ringer fluid (118 mM NaCl; 25 mM NaHCO3; 10mM glucose; 4.7 mM KCl; 1.25 mM CaCl2; 1.19 mM MgSO4; 1.14 mM KH2 PO4) at room temperature and a stream of carbogen (95% O2, 5% CO2) is bubbled through. The fat is then carefully removed from these vessels, which are thereafter cut into rings 2 mm wide and mounted under a baseline tension of 4 g (femoral arteries) or 1 g (saphenous veins) in tanks thermostated at 37C containing Krebs-Ringer fluid with a stream of carbogen constantly bubbled through. A lower hook constitutes the fixed point, while the upper hook is connected to an isometric force gauge. The variations in tension are digitized, stored on disk and processed by a computer system. After mounting, the organs are left undisturbed for 90 minutes, rinsing being performed every 30 min. After readjustment of the baseline tension, a contraction is induced with a single dose of KCl (100 mM). After stabilization, washing and return to the baseline, a contraction is induced by a single dose of phenylephrine (submaximal concentrations) in order to regularize the following contractions. After washing and return to the baseline, an effect/concentration curve is plotted by adding cumulative doses of agonist (the spacing between the doses is on a semilogarithmic scale). This experiment enables the 50% effective concentration (EC50) to be calculated in the following manner: the tension values are first converted to percentages relative to the maximum effect produced by 100 mM KCl. This EC50 is determined by nonlinear regression by the SIMPLEX method (M. S. CACECI, Byte, 340-362, 1984), calculated according to the L. MICHAELIS and M. L. MENTEN model of the law of mass action (Blochem. Zeitschrift, 49, 333-369, 1913). E=(Emax*C^n)(EC^n +C^n) with E=effects; Emax=maximum effect; C=concentration; EC=EC50; n=HILL's number

dog saphenous veins = test: In vitro study on dog saphenous veins (contraction); assay type: cell-based, dog (mongrel); details: Canis lupus familiaris, dog saphenous vein rings; for EC50: 37C, cumulative doses; for Emax: relative to maximum effect of 100 mM KCl, read-out: VEIN Max
Experimental: as §1, §2

pithed rats = test: In vivo study in pithed rats, blood pressure; design: species or system rat (Sprague-Dawley); details: Rattus norvegicus, iv, tertatolol pretreated, without prazosin or yohimbine, read-out: C20 Control (concentration that increases the pressure by 20 mm Hg)
Description: (§3) In vivo study in PITBED RATS
(§4) Male Sprague-Dawley rats (300-400 g) are anesthetized with ether. The trachea is canulated, the spinal cord is destroyed by means of a steel rod and the animal is immediately placed under artificial respiration. The vagal nerves are sectioned. The carotid arteries are ligated; a catheter is placed in one and is used to record blood pressure. A further three catheters are placed in the jugular veins and the veins of the penis and are used for injections. The animals'temperature is maintained at 36° C. The animal is pretreated by an injection of tertatolol ([…]). The animal is also pretreated 10 minutes later with prazosin ([…]) or yohimbine (1 mg/kg) when it is desired to determine the alpha1 --or alpha2 -adrenergic properties of the product. Ten minutes later, increasing cumulative doses of the product are injected every 20 seconds. Variations in blood pressure are detected using a Statham P23XL pressure cell and are recorded. The pressure values are expressed in mmHg. This experiment enables the concentration that increases the pressure by 20 mm Hg (C2.sbsb.0) to be calculated by non-linear regression according to the Michaelis and Menten model of the law of mass action, as described above. The maximum effect obtained is then converted to a percentage relative to the maximum effect produced by phenylephrine. The alpha1 - or alpha2 -adrenergic components of the product are assessed by means of the ratio of the C2.sbsb.0 values obtained in the presence of prazosin or yohimbine to the values obtained in the absence of these antagonists. In pithed rats, the products of the invention produce prazosin- and yohimbine-sensitive hypertension.

alpha2-adrenergic = test: In vivo study in pithed rats, pretreatment with yohimbine (alpha2-adrenergic component); design: species or system rat (Sprague-Dawley); details: yohimbine (1 mg/kg) pretreatment
Description: as §3, §4

carotid blood flow = test: In vivo study of carotid blood flow in anesthetized dogs; design: species or system dog; dose or concentration left out as unconfirmed; details: i.v., n-6
Experimental: In vivo study of carotid blood flow in anesthetized dogs
Dogs (12-18kg) are anesthetized with pentobarbital (30mg/kg i.v.). Anesthesia is then maintained by a perfusion of 0.8 ml/h of 6% pentobarbital. The animals are placed under assisted respiration and their temperature is maintained at 37C (Harvard thermostated blanket). Blood pressure and heart rate are measured by means of a Millar probe in the fernoral artery or brachial artery, via a transducer and a Gould biotach. The blood flow in the carotid arteries is recorded by means of a Gould SP2202 electromagnetic flow meter.

| Structure (SMILES) | EC50 (dog femoral arteries) [µM] | EC50 (dog saphenous veins) [µM] | Emax (dog femoral arteries) [%] | Emax (dog saphenous veins) [%] | ED (20 mm Hg) (pithed rats) [mg/kg] | Ratio C20 treated/C20 control, Yohimbine (alpha2-adrenergic) | fall in carotid blood flow (carotid blood flow) [%] |
| --- | --- | --- | --- | --- | --- | --- | --- |
| COc1cc2c(cc1O)CCC1(CNC=N1)C2 (centres unmarked) [Example 3, Spiro[(1,3-diaza-1-cyciopentene)-5,2'-(6'-hydroxy-7'-methoxy-1',2',3',4'-tetrahydronaphthalene)]fumarate] |  |  |  |  | 0.0009 | 2.9 |  |
| CC(C)Oc1ccc2c(c1)CCC1(CNC=N1)C2 (centres unmarked) [Example 5, Spiro[(1,3-diaza-1-cyclopentene)-5,2'-(6'-isopropyloxy-1',2',3',440-tetrahydronaphthalene)]fumarate] |  |  |  |  | 0.068 | 66 |  |
| COc1ccc2c(c1OC)CCC1(CNC=N1)C2 (centres unmarked) [Example 7, Spiro[(1,3-diaza-1-cyclopentene)-5,2'-(5',6'-dimethoxy-1',2',3',4'-tetrahydronaphthalene)]fumarate] |  |  |  |  | 0.137 | 2.4 |  |
| Cc1ccc2c(c1)CCC1(CNC=N1)C2 (centres unmarked) [Example 8, Spiro[(1,3-diaza-1-cyclopentene)-5,2'-(6'-methyl-1',2',3',4'-tetrahydronaphthalene)]fumarate] | 13 | 2.1 | 12 | 44 |  |  |  |
| COc1cc(C)cc2c1CCC1(CNC=N1)C2 (centres unmarked) [Example 9, Spiro[(1,3-diaza-1-cyciopentene)-5,2'-(5'-methoxy-7'-methyl-1',2',3',4'-tetrahydronaphthalene) ]fumarate] | 0.8 | 3.9 | 60 | 81 |  |  |  |
| Cc1ccc2c(c1)CC1(CC2)CNC=N1 (centres unmarked) [Example 24, Spiro[(1,3-diaza-1-cyclopentene)-5,2'-(7'-methyl-1',2',3',4'-tetrahydronaphthalene)]fumarate] | 70 | 0.16 | 8 | 57 | 0.03 | 1.5 |  |
| Cc1ccc2c(c1)C[C@@]1(CC2)CNC=N1 [Example 46, (S)-Spiro[(1,3-diaza-1-cyclopentene)-5,2'-(7'-methyl-1',2',3',4'-tetrahydronaphthalene)]fumarate] | 15 | 1.86 | 36 | 48 | 0.0068 | 3.4 | 62±4 |

Further lines, with some results ahead:

| EC50 (dog femoral arteries) [µM] | EC50 (dog saphenous veins) [µM] | Structure (SMILES) | Emax (dog femoral arteries) [%] | Emax (dog saphenous veins) [%] | ED (20 mm Hg) (pithed rats) [mg/kg] | Ratio C20 treated/C20 control, Yohimbine (alpha2-adrenergic) | fall in carotid blood flow (carotid blood flow) [%] |
| --- | --- | --- | --- | --- | --- | --- | --- |
| 5.9 | 1.3 | C1=NC2(CCc3ccccc3C2)CN1 (centres unmarked) [Example 1, Spiro[(1,3-diaza-1-cyclopentene)-5,2'-(1',2',3',4'-tetrahydronaphthalene)]benzenesulfonate] | 19 | 98 | 0.004 | 4.7 |  |
| 24 | 1.9 | Clc1cc(Cl)c2c(c1)CC1(CC2)CNC=N1 (centres unmarked) [Example 17, Spiro[(1,3-diaza-1-cyclopentene)-5,2'-(5',7'-dichloro-1',2',3',4'-tetrahydronaphthalene)]fumarate] | 10 | 44 |  |  |  |
| 0.5 | 1.6 | C1=NC2(CN1)Cc1cccc3cccc(c13)C2 [Example 31, Spiro[(1,3-diaza-1-cyclopentene)-5,2'-(2,3'-dihydrophenalene)] 1/2 fumarate] | 10 | 44 |  |  |  |

Source: patent US5436261A, “Benzospiroalkene heterocyclic compounds” (Adir et Compagnie, priority 1993, dated 1995)
